Test results taken from patent US11572557B2, “Photoreversible acylation reagents” (The Board of Trustees of the Leland Stanford Junior …, priority 2018, dated 2023).

Experiments:
12 nt DNA = assay: Control incubation of analogous 12 nt DNA with PCA 1 (PAGE); conditions: analogous 12 nt DNA incubated with PCA 1
[1] = tested on: 105 nt F30 Broccoli aptamer; assay: Broccoli aptamer folding / DFHBI fluorescence emission in vitro; assay type: biochemical; conditions: RNA cloaked 4 h with 100 mM PCA in water, no light
Method: In this example, the ability of PCAs to control longer RNAs produced by transcription was tested. Photocontrolled aptamers have recently gained interest due to their potential for therapeutic and imaging applications, as exemplified by recent work by Langer and Kohane in which a 26nt nucleolin-binding aptamer for cancer targeting was reported (L. Li et al. Proc. Natl. Acad. Sci. 2014, 111, 17099-103, the disclosure of which is herein incorporated by reference; See also, M. C. Buff et al Nucleic Acids Res. 2009, 38, 2111-18; L. Qiu et al. J. Am. Chem. Soc. 2013, 135, 12952-55; A Heckel and G. Mayer J. Am. Chem. Soc. 2005, 12, 822-23; and A. Pinto et al. ACS Chem. Biol. 2012, 7, 360-66; the disclosure of which are herein incorporated by reference). […] Broccoli RNA folds into a compact tertiary structure, forming a binding site for the DFHBI dye, which results in a strong increase in fluorescence.
F-30 Broccoli DNA template (3 ng) (Table S1) was amplified by PCR (98° C. for 30 s; 30 times: 98° C. for 10 s, 61° C. for 30 s, 72° C. for 30 s; 72° C. for 5 min, 4° C. forever) using Phusion High-Fidelity PCR master Mix (NEB), and primers mix in 50 μL reaction, according to the NEB protocol. […] Fluorescent emission spectra were recorded on a Fluorolog 3-11 instrument (Jobin Yvon-SPEX), λex=450 nm at 25° C. […]

[2] = tested on: 34 nt hammerhead ribozyme RNA; assay: Hammerhead ribozyme cleavage of Cy5-labeled substrate (urea PAGE); assay type: biochemical
Description: In this example, the ability of photocloaking to control the more complex function of a ribozyme RNA was examined. To form proper tertiary structure and initiate activity, RNA-cleaving ribozymes hybridize and bind metals (See Y Liu, T. J. Wilson, and D. M. J. Lilley Nat. Chem. Biol. 2017, 13, 508-13, the disclosure of which is herein incorporated by reference. Several examples of photocontrolled ribozymes have been reported previously (See S. G. Chaulk and A. M. MacMillan Nucleic Acids Res. 1998, 26, 3173-78; A. Nierth, M. Singer and A Jaschke Chem. Commun. (Camb). 2010, 46, 7975-77; D. D. Young and A. Dieters Bioorganic Med. Chem. Lett. 2006, 16, 2658-61; and S. G. Chaulk and A. M. MacMillan, 2007 cited supra; the disclosures of which are herein incorporated by reference), with the goal of studying ribozyme structure and folding. All prior studies, however, have been performed with modifications incorporated into RNAs during solid-phase synthesis. Thus, PCA 1 was tested whether it could be used to block a ribozyme in a single post-synthetic step, and subsequently phototrigger its activity. A 34 nt hammerhead ribozyme RNA (FIG. 18A; Seq. ID No. 5) was cloaked under standard conditions at room temperature and isolated from excess reagent and DMSO by precipitation. The cloaked ribozyme (200 nM) was then incubated with Cy5-labeled substrate (500 nM) in 50 mM Tris pH=6.0, 10 mM MgCl2 for 1 hour. The reaction was stopped by the addition of 8 M urea, 100 mM EDTA solution and then analyzed by urea PAGE (FIGS. 18B and 18C). […] The initial rates of substrate conversion were determined before and after cloaking (FIGS. 18D and 18E). […] After cloaking, the rate dropped 370-fold to 3.010^−3 min^−1, showing strong blocking of ribozyme function. […] Thus, ribozyme function can be robustly controlled by a direct photocloaking strategy.

[3] = tested on: F30-2xd Broccoli aptamer RNA in HeLa cells; assay: Epifluorescence microscopy of HeLa cells transfected with 237 nt Broccoli aptamer RNA; assay type: cell-based, human
Method: In this example, the capability to use this photocloaking strategy to switch on RNA function in cells was assessed by transfecting a cloaked Broccoli RNA construct into human cells and then exposing cells to light was explored. For these experiments, a larger 237 nt RNA (Seq. ID No. 7) construct encoding two dimeric Broccoli aptamers was prepared. This construct is known to be stable in the intracellular medium (G. S. Filonoy et al. Chem. Biol. 2015, 22 (5), 649-60, the disclosure of which is herein incorporated by reference). Accordingly, F30-2xdB_2 DNA (100 pmol; Seq. ID No. 8) was 5′ adenylated using Mth Ligase (100 pmol, NEB) according to NEB's protocol. Mini Elute columns, and PNI Buffer (Qiagen) were used to clean up double stranded DNA samples according to manufacturer's instructions. ssDNAs F30-2xdB_2 (40 pmol) and F30-2xdB_1 (20 pmol) were ligated according to NEB description, using Thermostable 5′ App DNA/RNA Ligase (40 pmol, NEB). Ligated DNA was purified on DNA Clean&Concentrator 5 columns (Zymo Research) using Zymo's protocol. F-30 2xd Broccoli ssDNA template (3 ng) was amplified by PCR (98° C. for 30 s; 30 times: 98° C. for 10 s, 60° C. for 30 s, 72° C. for 30 s; 72° C. for 5 min, 4° C. forever) using Phusion High-Fidelity PCR master Mix (NEB), and primers mix in 50 μL reaction, according to the NEB protocol. […]

[4] = tested on: complementary fluorogenic DNA (Q-STAR) probes; assay: Nucleic acid-templated fluorogenic Q-STAR reaction (hybridization); assay type: biochemical
Method: To further test the effect of cloaking on hybridization, a nucleic acid-templated reaction was employed with complementary fluorogenic DNA (Q-STAR) probes (R. M. Franzini and E. T. Kool J. Am. Chem. Soc. 2009, 131, 16021-23; and W. A. Velema and E. T. Kool J. Am. Chem. Soc. 2017, 139, 5405-11; the disclosures of which are herein incorporated by reference). RNA template (untreated, cloaked or photo-uncloaked) was dissolved in 70 mM Tris-Borate buffer pH=7.0, 10 mM MgCl2 to a concentration of 200 nM. To this was added QSTAR probe (200 nM; Seq. ID No. 3) and TPP probe (400 nM; Seq. ID No. 4) and the fluorescence was monitored overtime at 25° C. on a Fluorolog 3-11 instrument (Jobin Yvon-SPEX). λex=497 nm and λem=519 nm. Plots were smoothed by adjacent averaging. […] After the cloaked RNA was exposed to light for up to an hour and subjected to the Q-STAR hybridization probes, a strong restoration of signal (82% of original) was observed (FIG. 17B), consistent with uncloaking at relatively high efficiency.

complementary DNA strand = assay: Thermal denaturation (melting curve) of RNA template 1 annealed to complementary DNA; assay type: physicochemical; conditions: duplex with complementary DNA, phosphate buffer pH=7.2, 100 mM NaCl, 300 nM
Method: Hybridization of untreated, cloaked, and uncloaked RNA was examined. Initial experiments measured the effect of photocloaking on thermal stability of a duplex. Untreated and cloaked RNA template 1 (Seq. ID No. 2) were annealed to its complementary DNA strand in phosphate buffer pH=7.2, 100 mM NaCl at 300 nM by heating the sample to 95° C. for 2 min and then cooling to room temperature. Melting curves were obtained by monitoring the absorbance at 260 nm of the nucleic acid solution while increasing the temperature at a rate of 1° C./min. Curves were smoothed by adjacent averaging.

Compound	reaction with DNA (12 nt DNA) [%]	Broccoli RNA fluorescence with DFHBI [1]	drop of rate vs mock-treated ribozyme ([2]; after cloaking with PCA 1) [fold]	initial rate of substrate conversion ([2]; cloaked RNA exposed to light) [min⁻¹]	ribozyme function after uncloaking ([2]; cloaked with PCA 1, after 365 nm light exposure)	ribozyme activity (substrate cleavage) ([2]; ribozyme cloaked with PCA 1, 200 nM, substrate 500 nM, 1 hour)	fluorescence signal in cells ([3]; 237 nt RNA cloaked with PCA 2, HeLa cells, subsequent light exposure (30 minutes))	fluorescence signal in cells ([3]; 237 nt RNA cloaked with PCA 2, transfected in HeLa cells, no light)	restoration of signal ([4]; cloaked RNA exposed to light for up to an hour)	fluorogenic templated reaction signal ([4]; cloaked RNA template 200 nM, no light, 25° C.)	difference in melting temperature vs untreated RNA strand (complementary DNA strand) [°C]
COc1cc(COC(=O)n2ccnc2Cl)c([N+](=O)[O-])cc1OCCN(C)C [PCA 1, 4-(2-(dimethylamino)ethoxy)-5-methoxy-2-nitrobenzyl 2-chloro-1H-imidazole-1-carboxylate]	< 5	strong suppression of fluorescence	370	1.1	almost completely restored	almost complete abrogation of activity	–	–	–	–	–
COc1cc(C(C)OC(=O)n2ccnc2Cl)c([N+](=O)[O-])cc1OCCN(C)C (stereo not drawn) [PCA 2, 1-(4-(2-(dimethylamino)ethoxy)-5-methoxy-2-nitrophenyl)ethyl 2-chloro-1H-imidazole-1-carboxylate]	–	very dim fluorescence	–	–	–	–	emergence of a visible green fluorescence signal	no measurable signal above background	–	–	–
cloaked RNA template 1: RNA template 1 (Seq. ID No. 2, 5′ GCU CCC CAG CUU UCG C) acylated at 2′-OH with photocloaking groups (GCUCCCCAGCUUUCGC; RNA, backbone not given here; 2'-OH acylated with photocloaking groups, further chemistry not fully specified)	–	–	–	–	–	–	–	–	82 % of original	9 % of untreated RNA	10
